For test [1], the target named is T1, hMPO (Homo sapiens, UniProt P05164).
T1 construct: purchased Biodesign A31804H
T1 sequence (P05164 49-745): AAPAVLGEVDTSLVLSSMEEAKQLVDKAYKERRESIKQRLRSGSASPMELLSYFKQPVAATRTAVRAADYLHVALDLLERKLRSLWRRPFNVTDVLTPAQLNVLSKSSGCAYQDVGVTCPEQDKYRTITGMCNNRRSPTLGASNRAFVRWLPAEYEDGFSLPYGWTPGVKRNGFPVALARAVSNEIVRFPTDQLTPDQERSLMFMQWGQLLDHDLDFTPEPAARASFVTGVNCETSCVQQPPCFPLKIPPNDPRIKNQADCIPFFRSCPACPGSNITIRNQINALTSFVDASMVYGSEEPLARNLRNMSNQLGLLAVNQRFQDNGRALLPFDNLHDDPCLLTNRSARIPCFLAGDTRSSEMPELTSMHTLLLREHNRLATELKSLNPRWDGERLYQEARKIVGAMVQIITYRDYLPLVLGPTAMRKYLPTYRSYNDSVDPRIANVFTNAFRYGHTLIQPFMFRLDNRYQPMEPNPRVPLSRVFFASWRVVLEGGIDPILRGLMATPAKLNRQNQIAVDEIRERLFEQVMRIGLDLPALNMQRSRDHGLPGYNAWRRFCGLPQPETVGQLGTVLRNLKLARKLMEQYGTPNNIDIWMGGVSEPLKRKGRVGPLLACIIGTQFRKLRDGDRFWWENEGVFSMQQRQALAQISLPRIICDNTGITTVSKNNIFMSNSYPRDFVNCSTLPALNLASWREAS
Nature of the test: Alpha screen assay: inhibition of MPO-initiated nitration of the Apo-A1 peptide ([…]). Format: biochemical. Particulars: MPO 11.8 nM, pH 7.4, 45 min RT. On the procedure: In a typical experiment, MPO (11.8 nM final concentration) in 20 mM phosphate buffer pH 7.4, 10 % glycerol and 0.005 % gelatin (PB) is added to each well of a multi-well plate containing 20 μl PB ± compound (final concentration of DMSO = 0.9 %). The reaction is started by the addition of 20 μl PB containing 1.5 μM ApoAI peptide substrate, 300 μM diethylenetriaminepentaacetic acid (DTPA), 300 μM sodium nitrite, and 30 μM H2O2. The total reaction volume is 60 μl. The plates are incubated with agitation for 45 min at RT. The reaction is terminated with the addition of 20 μl of a stop solution containing 11.2 nM rabbit anti-nitrotyrosine antibody (final conc. of 2.8 nM), 100 μg/ml streptavidin donor beads, and 100 μg/ml protein A acceptor beads (final concentration of […]), FBS (1.6 % final concentration) in Superblock buffer. The plates are sealed, incubated in the dark for 1 h, and read on a Packard Fusion alpha plate reader.
Through a chloride independent pathway, MPO catalyzes the one electron oxidation of nitrite ions to nitrogen dioxide radicals which then […] protein amino acids like Tyrosine. We used the Apo-A1 peptide substrate ([…]) to follow the nitration of the Tyrosine (indicated by Y in the scheme below): MPO+H2O2→Compound INO2-+Compound I→NO2·+Compound II [drawing 1] Our initial experiments focused on identifying inhibitors that bind to the heme to inhibit the above catalytic action. A representative set of inhibitors is collected in Fig. 1a (strong binders, vide infra) and b (non binders, vide infra).

The target of test [2] is T2, native state (Fe3+) of hMPO (Homo sapiens, UniProt P05164).
T2 construct: purchased Athens Research and Technology
T2 sequence (P05164 49-745): T1 sequence (P05164 49-745)
Nature of the test: Low temperature ESR binding assay (binding-induced g shift, Rrelative). Particulars: for ESR Rrelative: Rrelative = (Rbound - Rnative)/Rnative x 100, inhibitor:MPO 40:1, pH 6, 6 % DMSO, 4-7 K; for Δg: absolute difference between g X and g Y of the bound complex; for ESR Binding: class by Rrelative, inhibitor:MPO 40:1; for g X / g Y: electronic g value of the bound complex, X-band ESR, 5 K. How it is done: After 5-min. incubation at room temperature, the entire reaction mixture (0.235 mL) was transferred to the ESR quartz tubes. To avoid the quartz tubes breaking during the rapid freezing cycles, the ESR tubes were initially frozen in a 1:1 Isopentane-Cyclohexane mixture cooled with dry ice powder and then transferred to a liquid nitrogen Dewar to be queued up for ESR measurements. The reaction mixture contained a final concentration of 6 % DMSO. ESR spectra were recorded on a Varian E-12, X-band spectrometer equipped with an Air Products liquid helium cryostat.
The experimental g values correspond to the spin Hamiltonian pertinent to the high-spin ion (S = 5/2).1 H=DSZ2-1/3SS+1+E/DSX2-SY2+βgeS.Be where D and E are the eigen values of the axial and rhombic field components, i.e., the symmetry of the ligand (inhibitors approaching heme in this case). […] When the heme lodges inside the protein, the protein side chain amino acid (histidine) approaches the heme vicinity and either binds (axially) directly to the iron in the heme pocket. […] Thus, the fifth ligand leads to lower (rhombic) symmetries causing the signal at g ~ 6 to split. This non-tetragonal splitting of the heme is quantitated by the relationship,2 E/D=Δg/48 where ∆g represents the absolute difference between the gX and gY components. Alternatively, making use of the fact that E/D maximum value = 1/3, one can simplify the above expression as a percentage of rhombicity, R:3 R=Δg/16×100%. […] To rank-order molecules in terms of their ability to distort the heme pocket/plane environment, we used a ratio of total distortion in the bound complex w.r.t. distortion seen in the native unbound enzyme:4 Rrelative=Rbound-Rnative/Rnative×100.
From the relative rhombicities of the bound and unbound complex, a measure of the strength of binding could be derived. […] For the ease of classification, we have empirically defined those with 5 ≤ Rrelative ≥ 2 as weak binding; 15 ≥ Rrelative ≥ 10 as moderate binding; and 25 ≥ Rrelative ≥ 15 as strong binding (Table 2).

Test [3] can be described thus: ABTS radical cation decolorization assay to measure the antioxidant capacity. Particulars: % inhibition at 20 uM single dose, read at 734 nm after 30 min. How it is done: The assay was modeled after the published procedure. Briefly, ABTS radical cation was prepared by adding 100 μl of 70 mM K2S2O8 to 10 ml ABTS, followed by vortexing and incubating at 37 °C water bath for 2 h. […] Trolox standards are dissolved in water. The reaction is started by adding the ABTS radical cation solution to the MPO inhibitors or Trolox (final concentration 20 μM). The plate is gently shaken for 1 min and then set on a bench top at room temperature for 30 min.

The target in test [4] is T1, hMPO. Nature of the test: Peroxidase inhibition assay: ESR of hMPO exposed to H2O2 with and without inhibitor. Particulars: inhibitor added before H2O2 (555 μM); inhibitor:MPO 40:1, in DMSO. The class given is biochemical. How it is done: Hydrogen peroxide (30 %, v/v; 9.71 M) is used with different dilutions in ice-cold deionized water. MPO at 50 μl of 20.8 μM (4.6 μM final concentration) is incubated with different concentrations of H2O2 in the absence and in the presence of inhibitors (inhibitor to MPO concentration is 40:1) for 1 min and rapidly frozen at 77 K. The inhibitors are added to MPO, incubated for 5 min prior to H2O2 addition in these reactions.

Setting [5] is: ESR, Inhibitor:MPO ratio 40:1, DMSO 6 %.

Usually IC50 stands for the concentration at which inhibition is half-maximal. The low end stands for higher potency, the high end for lower potency.

In test [1], `O=C(O)c1nn(-c2ccccc2)cc1O` [LSN17948] came in with an IC50 of 520 nM. In test [2] (setting [5]), the “proportion of the enzyme bound” value came to 70% and the “proportion of the enzyme unbound” value turned out to be 30%. In test [2], the “ESR Rrelative” value was found to be 24.2, the Δg turned out to be 2.256, the “ESR Binding” value is recorded as “Strong (25 ≥ Rrelative ≥ 15 as strong binding)” and the “g X” value is listed as 6.995. The “g Y” value in test [2] stood at 4.739. Moreover, the “% Anti oxidant potential” value in test [3] came out at 42.1%. Besides, in test [4], the “prevention of peroxide-induced ESR changes (decay of g X and g Y, growth of g ~ 6)” value was “The spectrum is unchanged and no g intermediate signal is seen”.

For `O=C(O)c1n[nH]c(-c2ccccc2)c1O` [LSN87637], half-maximal inhibition in test [1] (IC50) required 674 nM. Moreover, in test [2], the “ESR Rrelative” value worked out at 14.1, the Δg was 2.09, the “ESR Binding” value is given as “Moderate (15 ≥ Rrelative ≥ 10 as moderate binding)” and the “g X” value is on record as 6.917. For the same molecule, the “g Y” value in test [2] is reported as 4.827. In addition, the “% Anti oxidant potential” value in test [3] came out at 65.9%.

Consider `O=C(O)c1nn(-c2cccc3ccccc23)cc1O` [LSN2944556], for which 669 nM corresponded to half-maximal inhibition in test [1] (IC50). In addition, in test [2], the “ESR Rrelative” value came to 29.1, the Δg amounted to 2.308, the “ESR Binding” value is “Strong (25 ≥ Rrelative ≥ 15 as strong binding)” and the “g X” value is given as 7.0681. Further, the “g Y” value in test [2] was determined as 4.7601. Besides, the “% Anti oxidant potential” value in test [3] is on record as 67.6%.
